# From patent publication EP0362645B1, “Use of pteridines in the prevention of the primary and secondary resistance during chemotherapy, and medicaments containing these compounds” (Dr. Karl Thomae GmbH, priority 1988, dated 1990)
# Tested on: adriamycinresistente S 180 Maus Sarcomazellen
# Test: MTT proliferation/cytotoxicity assay on adriamycin-resistant S 180 sarcoma cells, with or without adriamycin (sensitisation)
# Assay type: cell-based
# Conditions: S-180, 144 h, six days culture, MTT readout
# From the text: Beispielsweise wurde die Sensibilisierung durch die Verbindungen A = 4-[N-(2-Hydroxy-2-methyl-propyl)-ethanolamino]-2,7-bis-(2,6-dimethyl-morpholino)-6-phenyl-pteridin, B = 4-Ethyl-ethanolamino-2,7-bis(2,6-dimethyl-morpholino)-6-phenyl-pteridin, C = 4-Ethanol-isopropanolamino-2,7-bis(2,6-dimethyl-morpholino)-6-phenyl-pteridin, D = 4-Diethanolamino-2,7-bis(2,6-dimethyl-morpholino)-6-phenyl-pteridin und E = 4-[N-(2-Hydroxy-2-methyl-propyl)-ethanolamino]-2,7-bis(cis-2,6-dimethyl-morpholino)-6-phenyl-pteridin am Beispiel von gegen Adriamycin resistenten Zellen wie folgt geprüft: Proliferierende, adriamycinresistente S 180 Maus Sarcomazellen werden in Anwesenheit unterschiedlicher Konzentrationen Testsubstanzen für sechs Tage kultiviert. Zytotoxisch oder zytostatisch wirkende Konzentrationen der Testsubstanzen werden durch vermindertes Zellwachstum oder durch das Absterben der Zellen angezeigt. Endpunkt des Assays ist die Zahl der lebenden Zellen pro Kultur, die indirekt ermittelt wird, indem die Eigenschaft vitaler Zellen, den Farbstoff MTT [= 3-(4,5-Dimethylthiazol-2-yl)-2,5-diphenyltetrazoliumbromid] zum farbigen Formazan zu reduzieren, ausgenützt wird. Als IC50 wird die Konzentration einer Testsubstanz bezeichnet, welche die Zahl der vitalen Zellen pro Kulturgefäß auf 50 % der unbehandelten Kontrolle reduziert. Die Testsubstanzen werden sowohl in Abwesenheit von Adriamycin als auch in Anwesenheit einer unter Kulturbedingungen nicht proliferationshemmend wirkenden Menge Adriamycin getestet. Pro Testsubstanz erhält man daher zwei IC50-Werte, einen in Anwesenheit (IC50 ADR), den anderen in Abwesenheit (IC50) von Adriamycin. Die Differenz der Zehnerlogarithmen der beiden IC50-Werte: Δ = 1gIC50-1gIC50 ADR ist ein Maß für die Erhöhung der Zytotoxizität der Testsubstanz durch Adriamycin.
# Exponentiell wachsende, adriamycinresistente oder adriamycinsensitive S 180-Zellen werden in 96-Loch Flachboden-Mikrotiterplatten zu 2000 Zellen pro Loch in 100 »l Wachstumsmedium (RPMI-1640, das 10 % fötales Rinderserum enthält) ausplattiert. Die Kulturplatten werden im Brutschrank bei 37°C, 5 % CO₂ und 100 % relativer Luftfeuchtigkeit inkubiert. Nach 24 Stunden werden pro Loch 50 »l Wachstumsmedium, das unterschiedliche Konzentrationen an Testsubstanz enthält, und 50 »l Wachstumsmedium mit oder ohne Adriamycin hinzugefügt. Im Anschluß an eine weitere sechstägige Kultivierung werden 50 »l Tetrazoliumsalzlösung [5 mg 3-(4,5-Dimethylthiazol-2-yl)-2,5-diphenyltetrazoliumbromid pro ml Phosphat-gepufferter Salinelösung, vor Gebrauch 1:5 (v/v) mit RPMI-1640 verdünnt] in jedes Loch pipettiert. Nach vier Stunden Inkubation wird das Kulturmedium vorsichtig abgesaugt und intrazellulär gebildetes Formazan durch 150 »l Dimethylsulfoxid pro Loch solubilisiert. Die Platten werden kurz geschüttelt und die optische Dichte bei 570 nm mit einem Photometer wie einem Dynatech MR-600-Gerät gemessen. Die Bildung des farbigen Formazans durch Reduktion des Tetrazoliumsalzes ist proportional der Zahl der lebenden Zellen. Die Mittelwerte von Dreifach-Bestimmungen wurden bei der Berechnung der IC50-Werte verwendet (Verdünnungsstufe: 1:2).
# [1] = Tabelle 2, Adriamycin 100 ng/ml
SMILES,"IC50 (Tabelle 1, Adriamycin 0 ng/ml) [µg/mL]","IC50 (Tabelle 1, Adriamycin 25 ng/ml) [µg/mL]","IC50 (Tabelle 2, Adriamycin 0 ng/ml) [µg/mL]",IC50 [1] [µg/mL]
"C[C@@H]1CN(c2nc(N(CCO)CC(C)(C)O)c3nc(-c4ccccc4)c(N4C[C@@H](C)O[C@@H](C)C4)nc3n2)C[C@H](C)O1 [E, 4-[N-(2-Hydroxy-2-methyl-propyl)-ethanolamino]-2,7-bis(cis-2,6-dimethyl-morpholino)-6-phenyl-pteridin]",7.5,0.5,7.5,0.1
"CC1CN(c2nc(N(CCO)CC(C)(C)O)c3nc(-c4ccccc4)c(N4CC(C)OC(C)C4)nc3n2)CC(C)O1 (centres unmarked) [A, 4-[N-(2-Hydroxy-2-methyl-propyl)-ethanolamino]-2,7-bis-(2,6-dimethyl-morpholino)-6-phenyl-pteridin]",20.7,1.49,20.7,< 0.5
"CC(O)CN(CCO)c1nc(N2CC(C)OC(C)C2)nc2nc(N3CC(C)OC(C)C3)c(-c3ccccc3)nc12 (centres unmarked) [C, 4-Ethanol-isopropanolamino-2,7-bis(2,6-dimethyl-morpholino)-6-phenyl-pteridin]",12.8,3.77,12.8,0.82
"CC1CN(c2nc(N(CCO)CCO)c3nc(-c4ccccc4)c(N4CC(C)OC(C)C4)nc3n2)CC(C)O1 (centres unmarked) [D, 4-Diethanolamino-2,7-bis(2,6-dimethyl-morpholino)-6-phenyl-pteridin]",14.4,5.78,14.4,1.57
"CCN(CCO)c1nc(N2CC(C)OC(C)C2)nc2nc(N3CC(C)OC(C)C3)c(-c3ccccc3)nc12 (centres unmarked) [B, 4-Ethyl-ethanolamino-2,7-bis(2,6-dimethyl-morpholino)-6-phenyl-pteridin]",> 31.6,4.43,> 31.6,0.77
